The term IC50 denotes the point on the concentration scale where inhibition reaches its midpoint. A high value points to weaker potency in that assay.

For the test, the target named is NS3 (Hepatitis C virus, UniProt A3EZJ3). Briefly: In vitro antiviral activity against hepatitis C virus (HCV) NS3 protease using scintillation proximity assay. Details: species or system Hepacivirus hominis.
Chain of NS3 (A3EZJ3 whole entry): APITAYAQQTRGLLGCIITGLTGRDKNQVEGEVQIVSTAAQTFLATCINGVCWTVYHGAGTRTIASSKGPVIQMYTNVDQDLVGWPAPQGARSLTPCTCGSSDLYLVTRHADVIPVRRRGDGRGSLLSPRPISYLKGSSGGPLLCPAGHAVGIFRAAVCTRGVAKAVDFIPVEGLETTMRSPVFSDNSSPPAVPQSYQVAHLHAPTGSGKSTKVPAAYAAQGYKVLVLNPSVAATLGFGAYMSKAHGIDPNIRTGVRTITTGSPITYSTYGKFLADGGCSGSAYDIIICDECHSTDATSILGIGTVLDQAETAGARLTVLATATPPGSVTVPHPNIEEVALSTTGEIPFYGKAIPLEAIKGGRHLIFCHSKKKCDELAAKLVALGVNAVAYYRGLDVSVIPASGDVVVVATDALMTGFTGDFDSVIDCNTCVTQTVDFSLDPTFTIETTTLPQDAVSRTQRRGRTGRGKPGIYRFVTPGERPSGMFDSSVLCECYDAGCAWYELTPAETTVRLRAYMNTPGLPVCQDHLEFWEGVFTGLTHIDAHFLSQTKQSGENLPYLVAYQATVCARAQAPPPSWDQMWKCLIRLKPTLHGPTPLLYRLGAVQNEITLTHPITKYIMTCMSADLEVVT

In the case of `O=C1C=C2C(=CCOC2O)O1` (stereo not drawn) [PATULIN], the IC50 was 24.7 µM.
The molecule `O=C1C=C2C(=CCOC2OC(=O)c2ccc(Br)cc2)O1` (stereo not drawn) gave an IC50 of 37.4 µM.
In turn, `CC(=O)OC1OCC=C2OC(=O)C=C21` (stereo not drawn) had an IC50 of 36.7 µM.
